Measured values from the supplement of paper PMC10307832.

Legend:
Assay in all cases: relative viability (nuclei count vs DMSO), 5 days (fraction); higher = more cells survive
201T = system: 201T
How it was run: (§1)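 For relative viability, nuclei counts in treated wells were divided by those in vehicle wells. Lung cancer cell lines had been pin-tool dosed in 1536-well plates the day after seeding and cultured for 5 days, then fixed and stained in one step (final 0.05% Triton X-100, 1% formaldehyde, 1 ug/ml Hoechst) and imaged at 4×. Doses were one drug alone or a fixed anchor-drug dose plus five library-drug doses (not always all listed) in √10 steps, and values are duplicate-plate medians.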

BEN = system: BEN
How it was run: as §1

CAL-12T = system: CAL-12T
How it was run: as §1

HCC-78 = system: HCC-78
How it was run: as §1

HOP-62 = system: HOP-62
How it was run: as §1

LCLC-97TM1 = system: LCLC-97TM1
How it was run: as §1

LOU-NH91 = system: LOU-NH91
How it was run: as §1

NCI-H1355 = system: NCI-H1355
How it was run: as §1

NCI-H1395 = system: NCI-H1395
How it was run: as §1

NCI-H1563 = system: NCI-H1563
How it was run: as §1

NCI-H1651 = system: NCI-H1651
How it was run: as §1

NCI-H1793 = system: NCI-H1793
How it was run: as §1

NCI-H1915 = system: NCI-H1915
How it was run: as §1

NCI-H1944 = system: NCI-H1944
How it was run: as §1

NCI-H2126 = system: NCI-H2126
How it was run: as §1

NCI-H2347 = system: NCI-H2347
How it was run: as §1

NCI-H3122 = system: NCI-H3122
How it was run: as §1

NCI-H322M = system: NCI-H322M
How it was run: as §1

NCI-H441 = system: NCI-H441
How it was run: as §1

NCI-H650 = system: NCI-H650
How it was run: as §1

NCI-H838 = system: NCI-H838
How it was run: as §1

SK-LU-1 = system: SK-LU-1
How it was run: as §1

SW 1573 = system: SW 1573
How it was run: as §1

Compound Cc1csc(=NC2CCCCC2)n1/N=C/c1ccc(O)c(O)c1O [MIM1] + Cc1nc(Nc2ncc(C(=O)Nc3c(C)cccc3Cl)s2)cc(N2CCN(CCO)CC2)n1 [Dasatinib] (partner 0.075 µM) has a relative viability (201T; first compound 0.2 µM) of 0.612, a relative viability (201T; first compound 0.6325 µM) of 0.614 and a relative viability (201T; first compound 2 µM) of 0.598. For the same compound, the relative viability (201T; first compound 6.325 µM) was 0.422, the relative viability (201T; first compound 20 µM) was 0.445 and the relative viability (BEN; first compound 0.2 µM) was 0.304. The relative viability (BEN; first compound 0.6325 µM) was 0.308, the relative viability (BEN; first compound 2 µM) was 0.348 and the relative viability (BEN; first compound 6.325 µM) was 0.378. It also gave a relative viability (BEN; first compound 20 µM) of 0.158, a relative viability (CAL-12T; first compound 0.2 µM) of 0.258 and a relative viability (CAL-12T; first compound 0.6325 µM) of 0.38. The relative viability (CAL-12T; first compound 2 µM) was 0.215, the relative viability (CAL-12T; first compound 6.325 µM) was 0.311 and the relative viability (CAL-12T; first compound 20 µM) was 0.115. For the same compound, the relative viability (HCC-78; first compound 0.2 µM) was 0.467, the relative viability (HCC-78; first compound 0.6325 µM) was 0.287 and the relative viability (HCC-78; first compound 2 µM) was 0.435. It also gave a relative viability (HCC-78; first compound 6.325 µM) of 0.344, a relative viability (HCC-78; first compound 20 µM) of 0.487 and a relative viability (HOP-62; first compound 0.2 µM) of 0.579. It also gave a relative viability (HOP-62; first compound 0.6325 µM) of 0.696, a relative viability (HOP-62; first compound 2 µM) of 0.677 and a relative viability (HOP-62; first compound 6.325 µM) of 0.629. The relative viability (HOP-62; first compound 20 µM) was 0.16, the relative viability (LCLC-97TM1; first compound 0.2 µM) was 0.866 and the relative viability (LCLC-97TM1; first compound 0.6325 µM) was 0.709. The relative viability (LCLC-97TM1; first compound 2 µM) was 1.02, the relative viability (LCLC-97TM1; first compound 6.325 µM) was 0.552 and the relative viability (LCLC-97TM1; first compound 20 µM) was 0.431. The relative viability (LOU-NH91; first compound 0.2 µM) was 0.502, the relative viability (LOU-NH91; first compound 0.6325 µM) was 0.529 and the relative viability (LOU-NH91; first compound 2 µM) was 0.537. For the same compound, the relative viability (LOU-NH91; first compound 6.325 µM) was 0.497, the relative viability (LOU-NH91; first compound 20 µM) was 0.365 and the relative viability (NCI-H1355; first compound 0.2 µM) was 0.746. The relative viability (NCI-H1355; first compound 0.6325 µM) was 0.682, the relative viability (NCI-H1355; first compound 2 µM) was 0.698 and the relative viability (NCI-H1355; first compound 6.325 µM) was 0.655. The relative viability (NCI-H1355; first compound 20 µM) was 0.391, the relative viability (NCI-H1395; first compound 0.2 µM) was 0.504 and the relative viability (NCI-H1395; first compound 0.6325 µM) was 0.465. It also gave a relative viability (NCI-H1395; first compound 2 µM) of 0.381, a relative viability (NCI-H1395; first compound 6.325 µM) of 0.443 and a relative viability (NCI-H1395; first compound 20 µM) of 0.303. It also gave a relative viability (NCI-H1563; first compound 0.2 µM) of 0.538, a relative viability (NCI-H1563; first compound 0.6325 µM) of 0.508 and a relative viability (NCI-H1563; first compound 2 µM) of 0.43. For the same compound, the relative viability (NCI-H1563; first compound 6.325 µM) was 0.524, the relative viability (NCI-H1563; first compound 20 µM) was 0.488 and the relative viability (NCI-H1651; first compound 0.2 µM) was 0.509. It also gave a relative viability (NCI-H1651; first compound 0.6325 µM) of 0.464, a relative viability (NCI-H1651; first compound 2 µM) of 0.458 and a relative viability (NCI-H1651; first compound 6.325 µM) of 0.282. The relative viability (NCI-H1651; first compound 20 µM) was 0.182, the relative viability (NCI-H1793; first compound 0.2 µM) was 0.417 and the relative viability (NCI-H1793; first compound 2 µM) was 0.372. For the same compound, the relative viability (NCI-H1793; first compound 6.325 µM) was 0.359, the relative viability (NCI-H1793; first compound 20 µM) was 0.31 and the relative viability (NCI-H1915; first compound 0.2 µM) was 0.354. For the same compound, the relative viability (NCI-H1915; first compound 0.6325 µM) was 0.293, the relative viability (NCI-H1915; first compound 2 µM) was 0.325 and the relative viability (NCI-H1915; first compound 6.325 µM) was 0.269. It also gave a relative viability (NCI-H1915; first compound 20 µM) of 0.187, a relative viability (NCI-H1944; first compound 0.2 µM) of 0.214 and a relative viability (NCI-H1944; first compound 0.6325 µM) of 0.204. It also gave a relative viability (NCI-H1944; first compound 2 µM) of 0.21, a relative viability (NCI-H1944; first compound 6.325 µM) of 0.191 and a relative viability (NCI-H1944; first compound 20 µM) of 0.176. For the same compound, the relative viability (NCI-H2126; first compound 0.2 µM) was 0.679, the relative viability (NCI-H2126; first compound 0.6325 µM) was 0.582 and the relative viability (NCI-H2126; first compound 2 µM) was 0.583. The relative viability (NCI-H2126; first compound 6.325 µM) was 0.471, the relative viability (NCI-H2126; first compound 20 µM) was 0.287 and the relative viability (NCI-H2347; first compound 0.2 µM) was 0.298. It also gave a relative viability (NCI-H2347; first compound 0.6325 µM) of 0.284, a relative viability (NCI-H2347; first compound 2 µM) of 0.291 and a relative viability (NCI-H2347; first compound 6.325 µM) of 0.339. For the same compound, the relative viability (NCI-H2347; first compound 20 µM) was 0.26, the relative viability (NCI-H3122; first compound 0.2 µM) was 0.779 and the relative viability (NCI-H3122; first compound 0.6325 µM) was 0.717. For the same compound, the relative viability (NCI-H3122; first compound 2 µM) was 0.882, the relative viability (NCI-H3122; first compound 6.325 µM) was 0.325 and the relative viability (NCI-H3122; first compound 20 µM) was 0.122. For the same compound, the relative viability (NCI-H322M; first compound 0.2 µM) was 0.265, the relative viability (NCI-H322M; first compound 0.6325 µM) was 0.245 and the relative viability (NCI-H322M; first compound 2 µM) was 0.249. It also gave a relative viability (NCI-H322M; first compound 6.325 µM) of 0.27, a relative viability (NCI-H322M; first compound 20 µM) of 0.38 and a relative viability (NCI-H441; first compound 0.2 µM) of 0.522. It also gave a relative viability (NCI-H441; first compound 2 µM) of 0.631, a relative viability (NCI-H441; first compound 6.325 µM) of 0.481 and a relative viability (NCI-H441; first compound 20 µM) of 0.262. The relative viability (NCI-H650; first compound 0.2 µM) was 0.496, the relative viability (NCI-H650; first compound 0.6325 µM) was 0.435 and the relative viability (NCI-H650; first compound 2 µM) was 0.459. For the same compound, the relative viability (NCI-H650; first compound 6.325 µM) was 0.416, the relative viability (NCI-H650; first compound 20 µM) was 0.301 and the relative viability (NCI-H838; first compound 0.2 µM) was 0.326. For the same compound, the relative viability (NCI-H838; first compound 0.6325 µM) was 0.298, the relative viability (NCI-H838; first compound 6.325 µM) was 0.314 and the relative viability (NCI-H838; first compound 20 µM) was 0.218. It also gave a relative viability (SK-LU-1; first compound 0.2 µM) of 0.155, a relative viability (SK-LU-1; first compound 0.6325 µM) of 0.19 and a relative viability (SK-LU-1; first compound 2 µM) of 0.189. For the same compound, the relative viability (SK-LU-1; first compound 6.325 µM) was 0.166, the relative viability (SK-LU-1; first compound 20 µM) was 0.235 and the relative viability (SW 1573; first compound 0.2 µM) was 0.557. It also gave a relative viability (SW 1573; first compound 0.6325 µM) of 0.558, a relative viability (SW 1573; first compound 2 µM) of 0.413 and a relative viability (SW 1573; first compound 6.325 µM) of 0.244. The relative viability (SW 1573; first compound 20 µM) was 0.0901.
